Test results taken from ChEMBL document CHEMBL1124835, “Structure-activity relationships of antineoplastic agents in multidrug resistance” (J Med Chem, 1990).

Assays:
CCRF-CEM [1] = test: Effect on cross resistance of CCRF-CEM cells resistant to vincristine expressed as log of ratio of molar concentration of compound inducing 50% growth inhibition in resistant to sensitive cells; format: functional, Homo sapiens
physchem = conditions: octanol/water, pH 7.4
CCRF-CEM [2] = test: Effect on cross resistance of CCRF-CEM cells resistant to vincristine expressed as as log of ratio of molar concentration of compound inducing 50% growth inhibition in resistant to sensitive cells; format: functional, Homo sapiens

| Compound | Log CR (CCRF-CEM [1]) | logD (physchem) | Log CR (CCRF-CEM [2]) |
| --- | --- | --- | --- |
| COc1cc([C@@H]2c3cc4c(cc3[C@H](O)[C@H]3COC(=O)[C@H]23)OCO4)cc(OC)c1OC [PODOFILOX] | 0.07 | 2.01 |  |
| COc1cc([C@@H]2c3cc4c(cc3[C@@H](O[C@@H]3O[C@@H]5CO[C@@H](c6cccs6)O[C@H]5[C@H](O)[C@H]3O)[C@H]3COC(=O)[C@H]23)OCO4)cc(OC)c1O [TENIPOSIDE] |  | 1.22 | 1.56 |
